Here are results for one molecule from patent publication US20030191347A1 (priority 2002, published 2003).

The data set in a line: dissolution in water. In kind it is physicochemical. As to conditions: stated in words only, no figure.

For `COc1ccc(C(CN(C)C)C2(O)CCCCC2)cc1` (stereo not shown) [venlafaxine base, 1-[2-(dimethylamino)-1-(4-methoxyphenyl)ethyl]cyclohexanol], the dissolution in water result is recorded as “slow”.
